12 compounds from ChEMBL document CHEMBL1201862, “PubChem BioAssay data set” (2004) can be followed below.

Among the test systems are 786-0; UACC-62; ACHN; SF-268; IGROV-1; SK-OV-3; EKVX; UO-31; M14; HCT-116; MOLT-4; NCI-H522; MDA-MB-435; OVCAR-3; UACC-257; NCI-H226; BT-549; NCI-H460; T47D; HL-60.
Assay in all cases: NCI tumour cell line growth inhibition, 48 h

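48-hour exposure; five concentrations; linearly interpolated endpoints. GI50 = concentration required for 50% inhibition of growth.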 Activity calls are given as the source filed them. Cut-off read from the data, not from the text of the source: active = GI50 up to about 1.1 µM and inactive = higher.

With `COc1ccc2c(c1)OCc1c-2oc2ccccc2c1=O`, the GI50 with 786-0 is 45.7 µM (inactive); with UACC-62 it was > 100 µM (inactive); in the test with ACHN it was 61.1 µM (inactive); with SF-268 it was 69.3 µM (inactive); in the test with IGROV-1 it was 75.2 µM (inactive); in the test on SK-OV-3, 47.5 µM (inactive). The GI50 with EKVX, in the test on UO-31, with M14, in the test with HCT-116, with MOLT-4 and in the test with NCI-H522 was > 100 µM (inactive) each time. In addition, the GI50 with MDA-MB-435, with OVCAR-3, with UACC-257, in the test with NCI-H226 and in the test on BT-549 was > 100 µM (inactive) in each case.

Take `O=C1C(=O)C(CCCO)(CCCO)CCCCCCCCC1(CCCO)CCCO`: the GI50 in the test with 786-0 was > 100 µM (inactive); with UACC-62, 88.1 µM (inactive); with ACHN, > 100 µM (inactive); with SF-268, 38.1 µM (inactive); in the test with IGROV-1 it was 41.3 µM (inactive); in the test with SK-OV-3 it was > 100 µM (inactive). The GI50 with EKVX is > 100 µM (inactive); in the test with UO-31, 37.4 µM (inactive); in the test with M14 it was 37.4 µM (inactive); in the test with NCI-H460 it was > 100 µM (inactive); with HCT-116, 32 µM (inactive); in the test on NCI-H522, 48.4 µM (inactive). The GI50 in the test with MDA-MB-435 is 61.2 µM (inactive); in the test on T47D, 87.7 µM (inactive); with OVCAR-3, 32.2 µM (inactive); with UACC-257 it was 73.8 µM (inactive); with HL-60 it was 12.4 µM (inactive); in the test on NCI-H226, > 100 µM (inactive).

For the compound `Nc1ccccc1C#CC(=O)c1cccc(C(F)(F)F)c1`, the GI50 in the test on 786-0 is 2.1 µM (inactive); with UACC-62, 1.86 µM (inactive); with SF-268 it was 2.2 µM (inactive); with IGROV-1, 0.258 µM (active); in the test on SK-OV-3 it was 15.3 µM (inactive); with EKVX, 16.3 µM (inactive). In addition, the GI50 is 1.29 µM (inactive) in the test with UO-31; 2.22 µM (inactive) in the test with M14; 19.3 µM (inactive) with NCI-H460; 2.66 µM (inactive) in the test with HCT-116; 2.55 µM (inactive) in the test on MOLT-4; 1.09 µM (active) in the test with NCI-H522. The GI50 is 2.52 µM (inactive) with MDA-MB-435; 4.03 µM (inactive) in the test on T47D; 3.78 µM (inactive) in the test on OVCAR-3; 15.7 µM (inactive) with UACC-257; 6.07 µM (inactive) with HL-60; 3.58 µM (inactive) in the test with NCI-H226.

Regarding `CC(/C=C/C=C/C=C/C=C/C=C/C(=O)C1=C(O)C(CCC(=O)O)N(C)C1=O)=C\C(C)C(OC1CC(O)C(O)C(C)O1)C(C)C` (centres undefined), the GI50 with 786-0 is 3.15 µM (inactive); with ACHN it was 3.13 µM (inactive); with SF-268, 2.84 µM (inactive); in the test with IGROV-1, 1.82 µM (inactive); in the test with EKVX, 3.31 µM (inactive); in the test with UO-31 it was 3.3 µM (inactive). Besides, the GI50 in the test on M14 was 3.26 µM (inactive); with NCI-H460 it was 2.96 µM (inactive); in the test with HCT-116, 2.82 µM (inactive); with MOLT-4, 2.82 µM (inactive); in the test on NCI-H522, 2.91 µM (inactive); in the test on MDA-MB-435 it was 3 µM (inactive). Moreover, the GI50 with OVCAR-3 was 1.98 µM (inactive); in the test on UACC-257, 2.15 µM (inactive); in the test on HL-60 it was 2.43 µM (inactive); in the test on NCI-H226, 3.48 µM (inactive); in the test on BT-549, 2.11 µM (inactive).

With `CN(C)c1ccc(C(N)=O)cn1`, the GI50 in the test on 786-0, in the test with UACC-62, with ACHN, in the test with SF-268, with IGROV-1 and with EKVX was > 100 µM (inactive) throughout. The GI50 with UO-31, with NCI-H460, with HCT-116, in the test on MOLT-4, in the test with NCI-H522 and in the test with MDA-MB-435 was > 100 µM (inactive) in each case. Further, the GI50 in the test with OVCAR-3, in the test with UACC-257, in the test with HL-60 and in the test with BT-549 was > 100 µM (inactive) each time.

As for `CCOC(=O)C(=[N+]=[N-])C(=O)CN1C(=O)C2CC(C)=C(C)CC2C1O` (centres undefined), the GI50 in the test on 786-0, in the test with UACC-62, in the test with ACHN, in the test on SF-268, in the test with IGROV-1 and in the test on EKVX was > 100 µM (inactive) in each case. Further, the GI50 in the test on UO-31, in the test with M14, with NCI-H460, with HCT-116, in the test with MOLT-4 and with NCI-H522 was > 100 µM (inactive) throughout. The GI50 in the test with MDA-MB-435 is > 100 µM (inactive); in the test with OVCAR-3 it was > 100 µM (inactive); in the test with UACC-257, > 100 µM (inactive); in the test on HL-60, > 100 µM (inactive); with NCI-H226 it was 68.2 µM (inactive); in the test with BT-549, > 100 µM (inactive).

Take `O=c1ccn(Cc2ccccc2CCl)c(=O)[nH]1`: the GI50 is 20.7 µM (inactive) in the test with 786-0; 26.9 µM (inactive) in the test with UACC-62; 26.9 µM (inactive) in the test with ACHN; 25.7 µM (inactive) with SF-268; 24.3 µM (inactive) with IGROV-1; 46.5 µM (inactive) in the test on SK-OV-3. The GI50 in the test with EKVX was 25.4 µM (inactive); in the test with UO-31 it was 29.3 µM (inactive); in the test with M14 it was 26.2 µM (inactive); with NCI-H460 it was > 100 µM (inactive); with HCT-116, 21.7 µM (inactive); in the test on MOLT-4, 40.6 µM (inactive). Also, the GI50 was 20.4 µM (inactive) in the test on NCI-H522; 28.9 µM (inactive) in the test on MDA-MB-435; 43.9 µM (inactive) in the test with T47D; 22.3 µM (inactive) in the test on OVCAR-3; 25.8 µM (inactive) in the test on UACC-257; 37.2 µM (inactive) in the test on HL-60.

On to `CC(C)=NN/C=N\C(C#N)=C(/N)C#N`, for which the GI50 in the test on 786-0, in the test with UACC-62, in the test with ACHN, with SF-268, in the test with IGROV-1 and in the test with SK-OV-3 was > 100 µM (inactive) each time. Besides, the GI50 is > 100 µM (inactive) with EKVX; > 100 µM (inactive) in the test on UO-31; > 100 µM (inactive) with M14; > 100 µM (inactive) with NCI-H460; 78.9 µM (inactive) with HCT-116; > 100 µM (inactive) in the test with MOLT-4. The GI50 in the test with NCI-H522, in the test with OVCAR-3, in the test on UACC-257, with HL-60, in the test with NCI-H226 and in the test with BT-549 was > 100 µM (inactive) each time.

Take `Cn1c(Nc2ccccc2)c(/C=N\c2ccccc2)c(=O)n(C)c1=O`: the GI50 in the test with 786-0 is 65.3 µM (inactive); with UACC-62 it was > 100 µM (inactive); in the test on SF-268 it was 45.7 µM (inactive); with IGROV-1, 38.3 µM (inactive); in the test on SK-OV-3, 62.1 µM (inactive); in the test on UO-31, 54.2 µM (inactive). Also, the GI50 is > 100 µM (inactive) in the test on M14; 56.2 µM (inactive) in the test on NCI-H460; 48.2 µM (inactive) with HCT-116; 61.5 µM (inactive) with MOLT-4; > 100 µM (inactive) in the test on MDA-MB-435; > 100 µM (inactive) with OVCAR-3. The GI50 in the test with UACC-257, in the test on HL-60 and in the test on BT-549 was > 100 µM (inactive) each time.

As to `CC1=CCC2CC1NC(=O)CCOCCC(=O)NC2(C)C` (centres undefined), the GI50 with 786-0, in the test with UACC-62, in the test on ACHN, in the test with SF-268, in the test on SK-OV-3 and with UO-31 was > 100 µM (inactive) in each case. Also, the GI50 with M14, in the test with NCI-H460, in the test on HCT-116, in the test with MOLT-4, with NCI-H522 and with MDA-MB-435 was > 100 µM (inactive) throughout. Moreover, the GI50 in the test with UACC-257 and in the test with NCI-H226 was > 100 µM (inactive) each time.

Take `Cc1cc2nc3c(=O)n(C)c(=O)nc-3n(-c3ccc(Cl)cc3)c2cc1C`: the GI50 in the test on 786-0 is 16.1 µM (inactive); with UACC-62, 2.91 µM (inactive); in the test on ACHN, 11.4 µM (inactive); in the test on SF-268, 11.4 µM (inactive); in the test with IGROV-1 it was 14.6 µM (inactive); in the test on SK-OV-3, 25.6 µM (inactive). Besides, the GI50 in the test with EKVX is 20.1 µM (inactive); in the test on UO-31, 20 µM (inactive); in the test with M14, 3.29 µM (inactive); in the test on NCI-H460 it was 3.3 µM (inactive); in the test with HCT-116, 11.9 µM (inactive); with MOLT-4 it was 11.2 µM (inactive). Further, the GI50 is > 10 µM (inactive) in the test with NCI-H522; 2.57 µM (inactive) in the test with OVCAR-3; 6.75 µM (inactive) in the test on UACC-257; 3.34 µM (inactive) in the test on HL-60; 13.1 µM (inactive) with NCI-H226.

Consider `CCCCCCCCCCCCCCCCNc1ccn(C2CC(OP(=O)(O)OCC3OC(n4cc(CC)c(=O)[nH]c4=O)CC3O)C(CO)O2)c(=O)n1` (centres undefined), for which the GI50 in the test on 786-0 was 83.2 µM (inactive); in the test with UACC-62, 18 µM (inactive); in the test on ACHN, 42.8 µM (inactive); in the test on SF-268, 15.3 µM (inactive); in the test with IGROV-1 it was 41.5 µM (inactive); in the test with SK-OV-3 it was 27.3 µM (inactive). For the same compound, the GI50 in the test with EKVX is 43 µM (inactive); with UO-31, 19.2 µM (inactive); in the test with M14 it was 17.8 µM (inactive); in the test with HCT-116, 50.1 µM (inactive); in the test with MOLT-4 it was 20.3 µM (inactive); in the test with NCI-H522, 36.4 µM (inactive). Also, the GI50 is 46.9 µM (inactive) in the test on MDA-MB-435; 44.2 µM (inactive) in the test on T47D; 38.3 µM (inactive) with OVCAR-3; 30.3 µM (inactive) in the test with UACC-257; 4.66 µM (inactive) with HL-60; 47.2 µM (inactive) with NCI-H226.
